In the NIST ThermoML archive (doi:10.1021/acs.jced.8b00310):

Assay: molar heat capacity at constant pressure
Conditions: Gas, Flow calorimetry

FC(F)C(F)(F)F [pentafluoroethane]
Conditions | molar heat capacity at constant pressure [J/K/mol]
303.15 K, 1500 kPa | 129.62
307.15 K, 1500 kPa | 123.62
311.15 K, 1500 kPa | 121.1
313.15 K, 1500 kPa | 121.58
314.15 K, 2000 kPa | 147.63
315.15 K, 2000 kPa | 145.71
316.15 K, 2000 kPa | 145.35
317.15 K, 2000 kPa | 144.27
318.15 K, 2000 kPa | 143.43
319.15 K, 2000 kPa | 140.18
319.15 K, 2200 kPa | 158.55
320.15 K, 2000 kPa | 138.38
320.15 K, 2200 kPa | 159.03
321.15 K, 2000 kPa | 139.7
321.15 K, 2200 kPa | 156.99
322.15 K, 2000 kPa | 135.62
323.15 K, 2200 kPa | 153.75
323.15 K, 2400 kPa | 173.91
324.15 K, 2400 kPa | 168.03
325.15 K, 2400 kPa | 161.31
326.15 K, 2400 kPa | 159.03
327.15 K, 2400 kPa | 157.47
343.15 K, 500 kPa | 103.22
343.15 K, 650 kPa | 105.62
343.15 K, 1000 kPa | 108.26
343.15 K, 1500 kPa | 115.7
343.15 K, 2000 kPa | 123.14
343.15 K, 2200 kPa | 128.3
343.15 K, 2400 kPa | 134.42
